This is an account of results in patent US20100016366A1, “Novel Compounds Active as Muscarinic Receptor Antagonists” (priority 2008, published 2010).

In test [1] the target is T1, human muscarinic M3 receptor (Homo sapiens, UniProt P20309).
T1 construct: expressed in transfected cells; host or cells: CHO (CHO-K1) cells
Kind of test: Cell based potency assessment, hM3 β-lactamase assay (CHO cell β-lactamase). The note with it: CHO cells recombinantly expressing human M3, NFAT-β-lactamase reporter; inhibition of 80 nM carbamyl choline signal, 4 h; IC50 converted by Cheng-Prusoff. Here is the method: Cell BASED POTENCY ASSESSMENT at the Human Recombinant M3 Muscarinic Receptor
M3 potency was determined in CHO-K1 cells transfected with the NFAT-Betalactamase gene. CHO (Chinese Hamster Ovary) cells recombinantly expressing the human muscarinic M3 receptor were transfected with the NFAT_β-Lac_Zeo plasmid. Cells were grown in DMEM with Glutamax-1, supplemented with 25 mM HEPES (Life Technologies 32430-027), containing 10% FCS (Foetal Calf Serum; Sigma F-7524), […] Sodium pyruvate (Sigma S-8636), NEAA (non-Essential Amino Acids; Invitrogen 11140-035) and 200 μg/ml Zeocin (Invitrogen R250-01).
hM3 β-Lactamase Assay Protocol
Cells were harvested for assay when they reached 80-90% confluency using enzyme free cell Dissociation Solution (Life technologies 13151-014) incubated with the cells for 5 min at 37° C. in an atmosphere containing 5% CO2. Detached cells were collected in warmed growth media and centrifuged at 2000 rpm for 10 min, washed in PBS (Phosphate Buffered Saline; Life Technologies 14190-094) and centrifuged again as just described. The cells were re-suspended at 2×10^5 cells/ml in growth medium (composition as described above). 20 μl of this cell suspension was added to each well of a 384 well black clear bottomed plate (Greiner Bio One 781091-PFI). The assay buffer used was PBS supplemented with 0.05% Pluronic F-127 (Sigma 9003-11-6) and 2.5% DMSO. Muscarinic M3 receptor signalling was stimulated using 80 nM carbamyl choline (Aldrich N240-9) incubated with the cells for 4 h at 37° C./5% CO2 and monitored at the end of the incubation period using a Tecan SpectraFluor+plate reader (λ−excitation 405 nm, emission 450 nm and 503 nm). M3 receptor antagonists under test were added to the assay at the beginning of the 4 h incubation period and compound activity measured as the concentration dependent inhibition of the carbamyl choline induced signal. Inhibition curves were plotted and IC50 values generated using a 4-parameter sigmoid fit and converted to Ki values using the Cheng-Prusoff correction and the KD value for carbamyl choline in the assay.

The target in test [2] is T1, human muscarinic M3 receptor. Kind of test: hM3 competition binding assay (3H-NMS, CHO cell membranes). To be noted: CHO cell membranes expressing human M3; 3H-NMS at 5×KD, 24 hr at RT; IC50 corrected by Cheng-Prussoff. Summed up: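 Membranes from CHO cells expressing human M3, 5 µg/well, incubated 24 h at RT with ³H-NMS at 5×KD in 20 mM HEPES pH 7.4; filtration and scintillation counting. Non-specific binding with 1 µM atropine. IC50 from specific-binding curves converted to Ki via Cheng-Prusoff.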

T1 sequence (P20309 whole entry): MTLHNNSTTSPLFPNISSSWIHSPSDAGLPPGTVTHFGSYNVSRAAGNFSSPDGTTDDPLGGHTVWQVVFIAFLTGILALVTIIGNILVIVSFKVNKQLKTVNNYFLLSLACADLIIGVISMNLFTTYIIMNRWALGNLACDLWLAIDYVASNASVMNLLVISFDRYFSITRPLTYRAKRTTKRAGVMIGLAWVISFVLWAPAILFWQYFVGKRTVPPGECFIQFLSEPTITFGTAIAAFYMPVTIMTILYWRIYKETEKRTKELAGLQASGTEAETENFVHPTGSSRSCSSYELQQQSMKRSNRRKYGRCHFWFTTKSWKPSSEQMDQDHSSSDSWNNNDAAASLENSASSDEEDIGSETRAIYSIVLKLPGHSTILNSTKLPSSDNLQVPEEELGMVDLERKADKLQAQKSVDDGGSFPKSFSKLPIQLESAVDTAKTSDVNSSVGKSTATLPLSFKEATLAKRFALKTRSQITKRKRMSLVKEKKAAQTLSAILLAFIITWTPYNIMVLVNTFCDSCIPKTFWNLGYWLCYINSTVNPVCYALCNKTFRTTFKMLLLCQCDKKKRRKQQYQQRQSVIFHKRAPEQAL

In the case of `O=C(Nc1ccccc1-c1ccccc1)OC1CCN(CCCCCCCCCNC(=O)c2ccc(O)cc2F)CC1` [Example 20, Biphenyl-2-yl-carbamic acid 1-[9-(2-fluoro-4-hydroxy-benzoylamino)-nonyl]-piperidin-4-yl ester], the Ki in test [1] amounted to 0.918 nM; in test [2], 1.95 nM.
`O=C(Nc1ccccc1-c1ccccc1)OC1CCN(CCCCCCCCCNCc2cc(Cl)ccc2O)CC1` [Example 32, Biphenyl-2-yl-carbamic acid 1-[9-(5-chloro-2-hydroxy-benzylamino)-nonyl]-piperidin-4-yl ester]: the inhibition constant (Ki) in test [1] worked out at 1.34 nM; in test [2], 3.04 nM.
Regarding `CN(CCCCCCCCCN1CCC(OC(=O)Nc2ccccc2-c2ccccc2)CC1)C(=O)Cc1ccc(O)c(Cl)c1` [Example 15, Biphenyl-2-yl-carbamic acid 1-(9-{[2-(3-chloro-4-hydroxy-phenyl)-acetyl]-methyl-amino}-nonyl)-piperidin-4-yl ester], the Ki came out at 0.396 nM in test [1] and 2.37 nM in test [2].

As a reminder, the Ki is the dissociation constant of the complex between target and ligand, obtained from inhibition or displacement.
